The values below come from patent US20040176370A1, “3,4-Dihdro-N-[[1-(3-hydroxybutyl)-4-piperidinyl]methyl]-2H-[1,3]oxazino[3,2-a]indole-10-carboxamide as 5-HT(4) receptor antagonist” (SmithKline Beecham p.l.c., priority 1998, published 2004).

In assay [1] the target is T1, 5-HT4 receptor (Cavia porcellus, UniProt O70528).
T1 construct: Longitudinal muscle-myenteric plexus (LMMP) preparations, 2-3 cm long, are obtained from the distal colon region; from tissue; host or cells: guinea-pig distal colon longitudinal muscle-myenteric plexus (LMMP)
T1 sequence (O70528 whole entry): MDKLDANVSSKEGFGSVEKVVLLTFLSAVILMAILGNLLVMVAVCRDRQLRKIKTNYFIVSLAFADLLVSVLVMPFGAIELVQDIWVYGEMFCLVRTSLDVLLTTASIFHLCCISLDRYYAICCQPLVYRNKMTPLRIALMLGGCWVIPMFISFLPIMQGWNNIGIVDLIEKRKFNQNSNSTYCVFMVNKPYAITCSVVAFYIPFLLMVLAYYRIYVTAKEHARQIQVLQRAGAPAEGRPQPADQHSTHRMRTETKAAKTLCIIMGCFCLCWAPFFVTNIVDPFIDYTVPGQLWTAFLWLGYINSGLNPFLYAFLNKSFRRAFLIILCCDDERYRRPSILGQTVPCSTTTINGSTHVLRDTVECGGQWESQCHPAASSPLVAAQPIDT
Nature of the assay: 5-HT4 receptor antagonist activity: 5-HT-evoked contractions of guinea-pig distal colon LMMP preparations. In kind it is cell-based. To be noted: antagonism of 5-HT dose response curve, 45 minutes incubation. On the procedure:
5-HT4 RECEPTOR ANTAGONIST ACTIVITY
Male Dunkin Hartley guinea-pigs, weighing 200-300 g are used. Longitudinal muscle-myenteric plexus (LMMP) preparations, 2-3 cm long, are obtained from the distal colon region. These are suspended under a 0.5 g load in isolated tissue baths containing Krebs Henseleit solution (NaCl 118 mM, KCl 4.7 mM KH2PO4 1.2 mM MgSO4 7H2O 1.2 mM, Glucose 11.1 mM, NaHCO3 25 mM, CaCl2 6H2O 2.5 mM) bubbled with 5% CO2 in O2, maintained at 37° C. and containing 1 uM Granisetron and 0.1 uM Methiothepin to block 5HT3 and 5HT1-like receptors respectively. 100 uM Pargyline is also added to the tissues at the start of the experiment. Tissues are left for 15 minutes to equilibrate and then exposed to 5-HT at 0.1 uM every 15 minutes until a uniform response is achieved. Following a half hour period for tissues to stabilise, non-cumulative dose response curves to 5-HT are constructed in all tissues. When base-lines have returned to normal, test compounds are added in the reservoirs of the tissue set-ups and washed in to the tissues. Tissues are incubated with the antagonists for 45 minutes after which a second non-cumulative dose response curve to 5-HT is constructed. […]

Assay [2] has as its system DMPP-evoked contractions (nicotinic receptor agonist). Nature of the assay: Selectivity test: cholinergically-mediated contractions of guinea-pig colon evoked by the nicotinic receptor agonist DMPP. In kind it is cell-based. Particulars: guinea-pig colon LMMP, dose response curve to DMPP. On the procedure: To test for selectivity of action, compounds are tested for their ability to antagonise cholinergically-mediated contractions of the guinea-pic colon, evoked by the nicotinic receptor agonist, DMPP (1,1-dimethyl-4-phenyl-piperazinium iodide). For these experiments, tissues and equipment are set up as for the above, 5HT4 receptor experiments. After sensitization, non-cumulative dose response curves are constructed to DMPP. Test compounds are incubated with the tissues as above, and a second dose response curve to DMPP created. Results are given as mean pKB±SEM values for each antagonists.

The Kb is the equilibrium dissociation constant of an antagonist, usually derived from a functional assay. `CC(O)CCN1CCC(CNC(=O)c2c3n(c4ccccc24)CCCO3)CC1` (racemic) [compound of formula (I), 3,4dihydro-N-[[1-(3-hydroxybutyl)-4-piperidinyl]methyl]-2H-[1,3]oxazino[3,2-α]indole-10-carboxamide] showed a Kb in assay [1] of 0.501 nM. In assay [2], the “effect on DMPP-evoked contractions” value is “did not significantly affect”.
